Source: US20260355239A1, “COMBINATION OF A T CELL THERAPY AND CONTINUOUS OR INTERMITTENT DGK INHIBITOR DOSING” (Juno Therapeutics, Inc., priority 2022, published 2026)

How the values were obtained:
Human venous whole blood = assay: Human Whole Blood IFN-γ Assay; format: cell-based; settings: anti-CD3 + anti-CD28, 24 h, normalized to 3 μM reference compound, read-out: INFg Whole Blood Normalized-Agonist EC50
Description: 9. Human Whole Blood IFN-γ Assay
Human venous whole blood (22.5 μL per well), obtained from healthy donors, was pre-treated with compounds for one hour at 37 °C in a humidified 95% air/5% CO2 incubator. The blood was stimulated with 2.5 μL anti-human CD3 and anti-CD28 mAb at a final concentration of 1 μg/mL each for 24 hours at 37 °C. IFN-γ in the supernatants was measured using AlphLISA kit (Cat #AL217).

[1] = system: OT-1 CD8+ T cells with MC38 tumor cells; assay: Murine Cytotoxic T Lymphocyte Assay (IFN-γ); format: cell-based, mouse; settings: OT-1 CTL with SIINFEKL-pulsed MC38 cells, 24 h; read-out: msCTL INFg IC50
Text: 5. Murine Cytotoxic T Lymphocyte Assay
An antigen-specific cytolytic T-cell (CTL) assay was developed to evaluate functionally the ability of DGKα and DGKζ inhibitors to enhance effector T cell mediated tumor cell killing activity. CD8^+ T-cells isolated from the OT-1 transgenic mouse recognize antigen presenting cells, MC38, that present the ovalbumin derived peptide […]. Recognition of the cognate antigen initiates the cytolytic activity of the OT-1 antigen-specific CD8+ T cells.
Functional CTL cells were generated as follows: OT-1 splenocytes from 8-12 week old mice were isolated and expanded in the presence of the […] peptide at 1 μg/mL and mIL2 at 10 U/mL. After three days, fresh media with […] was added. On day 5 of the expansion, the CD8+ T cells were isolated and ready for use. Activated CTL cells may be stored frozen for 6 months. Separately, one million MC38 tumor cells were pulsed with 1 μg/mL of […]-OVA peptide for 3 hours at 37 °C. The cells were washed (3×) with fresh media to remove excess peptide. Finally, CTL cells that were pretreated with DGK inhibitors for 1 hour in a 96-well U bottom plate were combined with the antigen loaded MC38 tumor cells at a 1:10 ratio. The cells were then spun at 700 rpm for 5 min and placed in an incubator overnight at 37 °C After 24 hours, the supernatant was collected for analysis of IFN-γ cytokine levels by AlphaLisa purchased from Perkin Elmer.

naïve human CD8 T cells = assay: Human CD8 T Cells IFN-γ Assay; format: cell-based; settings: anti-CD3 + anti-CD28, 20 h, normalized to 3 μM reference compound, read-out: HuCD8 INFG Normalized EC50
Description: 7. Human CD8 T Cells IFN-γ Assay
Frozen naïve human CD8 T cells were thawed in AIM-V media, incubated for 2 h in 37 °C, and counted. The 384-well tissue culture plate was coated overnight at 4 °C with 20 μL anti-human CD3 at […] in PBS, which was removed off the plate before 40,000 cells per 40 microliters CD8 T cells with 0.1 μg/mL soluble anti-human CD28 were added to each well. The compounds were transferred using an Echo liquid handler to the cell plate immediately after the cells were plated. After 20 h incubation at 37 °C incubator, 3 microliters per well supernatants transferred into a new 384-well white assay plate for cytokine measurement.
Interferon-γ (IFN-γ) was quantitated using the AlphLISA kit (Cat #AL217) as described by the manufacturer manual (Perkin Elmer). The counts from each well were converted to IFN-γ concentration (pg/mL).

Row | Structure (SMILES) | EC50 (Human venous whole blood) [nM] | EC50 [1] [nM] | EC50 (naïve human CD8 T cells) [nM]
1 | COC(=O)C1CN(c2cc(=O)n(C)c3ccc(C#N)nc23)CCN1C(c1ccc(F)cc1)c1ccc(F)cc1 (centres unmarked) [Compound 2, Methyl 1-(bis(4-fluorophenyl)methyl)-4-(6-cyano-1-methyl-2-oxo-1,2-dihydro-1,5-naphthyridin-4-yl)piperazine-2-carboxylate] | 520 | 64 | 62
2 | C[C@@H]1CN(c2c(C#N)c(=O)n(C)c3ccc(C#N)nc23)CCN1C(c1ccc(F)cc1)c1ccc(F)cc1 [Compound 4, (R)-8-(4-(bis(4-fluorophenyl)methyl)-3-methylpiperazin-1-yl)-5-methyl-6-oxo-5,6-dihydro-1,5-naphthyridine-2,7-dicarbonitrile] | 400 | 43 | 17
3 | C[C@@H]1CN(c2cc(=O)n(C)c3ccc(C#N)nc23)[C@@H](C)CN1C(c1ccccc1)c1ccc(F)cc1 (stereo partly drawn) [Compound 5, 8-[(2S,5R)-4-[(4-fluorophenyl) (phenyl)methyl]-2,5-dimethylpiperazin-1-yl]-5-methyl-6-oxo-5,6-dihydro-1,5-naphthyridine-2-carbonitrile] | 680 |  | 30
4 | COc1ccc2c(n1)c(N1C[C@@H](C)N(C(c3ccc(F)cc3)c3ccc(Cl)cc3)C[C@@H]1C)cc(=O)n2C (stereo partly drawn) [Compound 8, 4-[(2S,5R)-4-[(4-chlorophenyl)(4-fluorophenyl)methyl]-2,5-dimethylpiperazin-1-yl]-6-methoxy-1-methyl-1,2-dihydro-1,5-naphthyridin-2-one] |  |  | 12000
5 | C[C@@H]1CN(c2cc(=O)n(C)c3ccc(C#N)nc23)[C@@H](C)CN1Cc1ccc(F)cc1C(F)F [Compound 9, 8-[(2S,5R)-4-{[2-(difluoromethyl)-4-fluorophenyl]methyl}-2,5-dimethylpiperazin-1-yl]-5-methyl-6-oxo-5,6-dihydro-1,5-naphthyridine-2-carbonitrile] | 1500 |  | 170
6 | Cc1ccc(C(c2ccc(F)cc2)N2C[C@H](C)N(c3cc(=O)n(C)c4ccc(C#N)nc34)C[C@H]2C)cc1 (stereo partly drawn) [Compound 10, 8-[(2S,5R)-4-[(4-fluorophenyl)(4-methylphenyl)methyl]-2,5-dimethylpiperazin-1-yl]-5-methyl-6-oxo-5,6-dihydro-1,5-naphthyridine-2-carbonitrile] | 440 | 32 | 23
7 | CC(c1c(F)cccc1F)N1C[C@H](C)N(c2cc(=O)n(C)c3ccc(C#N)nc23)C[C@H]1C (stereo partly drawn) [Compound 11, 8-[(2S,5R)-4-[1-(2,6-difluorophenyl)ethyl]-2,5-dimethylpiperazin-1-yl]-5-methyl-6-oxo-5,6-dihydro-1,5-naphthyridine-2-carbonitrile] | 650 |  | 22
8 | CCC(c1ccc(F)cc1F)N1C[C@H](C)N(c2cc(=O)n(C)c3ccc(C#N)nc23)C[C@H]1C (stereo partly drawn) [Compound 12, 8-((2S,5R)-4-(1-(2,4-difluorophenyl)propyl)-2,5-dimethylpiperazin-1-yl)-5-methyl-6-oxo-5,6-dihydro-1,5-naphthyridine-2-carbonitrile] | 440 |  | 48
9 | Cc1ccc(C(c2ccc(C)cc2)N2C[C@H](C)N(c3cc(=O)n(C)c4ccc(C#N)nc34)C[C@H]2C)cc1 [Compound 16, 8-[(2S,5R)-4-[bis(4-methylphenyl)methyl]-2,5-dimethylpiperazin-1-yl]-5-methyl-6-oxo-5,6-dihydro-1,5-naphthyridine-2-carbonitrile] | 520 | 72 | 9.5
10 | CCC(c1ccc(C(F)(F)F)cc1)N1C[C@H](CC)N(c2nc(=O)n(C)c3ccc(C#N)nc23)C[C@H]1CC (stereo partly drawn) [Compound 18, 4-((2S,5R)-2,5-Diethyl-4-(1-(4-(trifluoromethyl)phenyl)propyl)piperazin-1-yl)-1-methyl-2-oxo-1,2-dihydropyrido[3,2-d]pyrimidine-6-carbonitrile] | 3750 |  | 
11 | CC[C@@H]1CN(c2nc(=O)n(C)c3ccc(C#N)nc23)[C@@H](C)CN1C(C)c1ccc(C(F)(F)F)cc1 (stereo partly drawn) [Compound 19, 4-((2S,5R)-5-Ethyl-2-methyl-4-(1-(4-(trifluoromethyl)phenyl)ethyl)piperazin-1-yl)-1-methyl-2-oxo-1,2-dihydropyrido[3,2-d]pyrimidine-6-carbonitrile] | 520 |  | 
12 | CC[C@@H]1CN(c2nc(=O)n(C)c3ccc(C#N)nc23)[C@@H](C)CN1C(C)c1ccc(C(F)(F)F)cc1 (stereo partly drawn) [Compound 20, 4-((2S,5R)-5-Ethyl-2-methyl-4-(1-(4-(trifluoromethyl)phenyl)ethyl)piperazin-1-yl)-1-methyl-2-oxo-1,2-dihydropyrido[3,2-d]pyrimidine-6-carbonitrile] | 32 |  | 
13 | CC[C@@H]1CN(c2nc(=O)n(C)c3ccc(C#N)nc23)[C@@H](C)CN1C(c1ccc(F)cc1)c1ccc(C(F)(F)F)cn1 (stereo partly drawn) [Compound 21, 4-((2S,5R)-5-Ethyl-4-((4-fluorophenyl)(5-(trifluoromethyl)pyridin-2-yl)methyl)-2-methylpiperazin-1-yl)-1-methyl-2-oxo-1,2-dihydropyrido[3,2-d]pyrimidine-6-carbonitrile] | 43 |  | 
14 | CC[C@@H]1CN(c2nc(=O)n(C)c3ccc(C#N)nc23)[C@@H](C)CN1C(c1ccc(F)cc1)c1ccc(C(F)(F)F)cn1 (stereo partly drawn) [Compound 22, 4-((2S,5R)-5-Ethyl-4-((4-fluorophenyl)(5-(trifluoromethyl)pyridin-2-yl)methyl)-2-methylpiperazin-1-yl)-1-methyl-2-oxo-1,2-dihydropyrido[3,2-d]pyrimidine-6-carbonitrile] | 20 |  | 
15 | CC[C@@H]1CN(c2nc(=O)n(C)c3ccc(C#N)nc23)[C@@H](C)CN1C(c1ccc(Cl)cc1)c1ccccn1 (some centres unmarked) [Compound 23] | 10500 |  | 
16 | CC[C@@H]1CN(c2nc(=O)n(C)c3ccc(C#N)nc23)[C@@H](C)CN1C(c1ccc(Cl)cc1)c1ccccn1 (some centres unmarked) [Compound 24] | 200 |  | 
17 | CC[C@H]1CN(C(c2ccc(F)cc2)c2nc(C3CC3)no2)[C@H](CC)CN1c1nc(=O)n(C)c2ccc(C#N)nc12 (some centres unmarked) [Compound 25] | 15 |  | 
18 | CC[C@H]1CN(C(c2ccc(F)cc2)c2nc(C3CC3)no2)[C@H](CC)CN1c1nc(=O)n(C)c2ccc(C#N)nc12 (some centres unmarked) [Compound 26] | 90 |  | 
19 | C[C@@H]1CN(c2nc(=O)n(C)c3ccc(C#N)nc23)[C@@H](C)CN1C(c1ccc(F)cc1)c1ccc(C(F)(F)F)cn1 (stereo partly drawn) [Compound 28, 4-((2S,5R)-4-((4-fluorophenyl)(5-(trifluoromethyl)pyridin-2-yl)methyl)-2,5-dimethylpiperazin-1-yl)-1-methyl-2-oxo-1,2-dihydropyrido[3,2-d]pyrimidine-6-carbonitrile] | 240 |  | 
20 | CCC[C@@H]1CN(c2nc(=O)n(C)c3ccc(C#N)nc23)[C@@H](C)CN1C(C)c1ccc(C(F)(F)F)cc1 (stereo partly drawn) [Compound 33, 1-Methyl-4-((2S,5R)-2-methyl-5-propyl-4-(1-(4-(trifluoromethyl)phenyl)ethyl)piperazin-1-yl)-2-oxo-1,2-dihydropyrido[3,2-d]pyrimidine-6-carbonitrile] | 20000 |  | 
